`CO[C@@H](C)CNC(=O)c1c[nH]c2ncc(-c3nn(C)c4cc(F)ccc34)nc12` gave a melting point of 269 to 271 °C.
With `CC(C)C(NC(=O)OCc1ccncc1)C(=O)NC(Cc1ccccc1)C(O)C(O)C(Cc1ccccc1)NC(=O)C(NC(=O)OCc1ccncc1)C(C)C` (stereo not given) the melting point was 190 to 193 °C.
With `CCCN(CCC)c1nsc(NC(=O)NC)c1C#N` the melting point was 179 to 180 °C.
In the case of `Cc1oc(-c2ccccc2)nc1COc1cc(CCl)ccn1`, the melting point was 104 to 105 °C.
Compound `CNC(=O)c1c[nH]c2ccc(C(=O)c3c(C)c(OC)c4ccccn34)cc2c1=O` has a melting point of 324 °C.
With `O=C(O)C(Cl)=C(Cl)C(O)=NCCc1ccc(F)cc1` the melting point was 137 to 138 °C.
Work on `O=C(COCC(=O)Nc1ccc([N+](=O)[O-])c(C(F)(F)F)c1)Nc1ccc([N+](=O)[O-])c(C(F)(F)F)c1` yielded a melting point of 137 to 138 °C.
For `O=CNc1c2c(nc3ccccc13)CCc1cnn(-c3ccccc3)c1-2`, the melting point was > 250 °C.
Compound `CCCCN(CCCC)CCCOc1ccc(S(=O)(=O)c2cn[nH]c2C(C)C)cc1` has a melting point of 53 °C.
With `COc1cccc2sc(-c3ccc(C(C)(C)C)cc3)nc12` the melting point was 90 to 91 °C.
Compound `O=C1NC(=O)C(Cc2ccc(OCCON=Cc3ccccc3)cc2)S1` (stereo not given) has a melting point of 126 to 129 °C.
For `C=CCc1cn(C(c2ccccc2)(c2ccccc2)c2ccccc2)c(F)n1`, the melting point was 136 to 138 °C.
`CC1c2cc(C(C)(C)C)cc(C(C)(C)C)c2O[PH](=O)Oc2c1cc(C(C)(C)C)cc2C(C)(C)C` (stereo not given) gave a melting point of 209 °C.
For `Cc1nc2ccccc2cc1NC(=O)N1CCN(c2cc(Cl)cc(Cl)c2)CC1`, the melting point was 247 to 249 °C.
In the case of `CN(SN1CCOCC1)C(=O)ON=C1SCC(=O)NC1(C)C`, the melting point was 180 to 182 °C.
Compound `CC(C)C(=O)NCCNCC(O)COc1ccccc1` (single isomer, unassigned; (-)) has a melting point of 89 to 91 °C.
`CC(C)(C)OC(=O)N[C@H](Cc1ccc(C(F)(F)F)o1)[C@@H](O)c1ccc(F)cc1` (racemic) showed a melting point of 111 to 112 °C.
Work on `COc1cccc(CO)c1C` yielded a melting point of 63 to 64 °C.
Work on `CCOC(=O)c1cc2cc(OCCCS(C)(=O)=O)cc([N+](=O)[O-])c2[nH]1` yielded a melting point of 162 to 163 °C.
Work on `O=C(O)C(=NOCc1cccnc1)c1csc(NC(c2ccccc2)(c2ccccc2)c2ccccc2)n1` yielded a melting point of 192 °C.
With `Oc1ncnc2nc(C(F)(F)F)ccc12` the melting point was 268 to 269 °C.
Work on `CCCCCCc1nc2cnc3ccccc3c2n1CCCCNS(=O)(=O)c1ccccc1` yielded a melting point of 137 to 138 °C.
Work on `Oc1c(F)cc(Cn2c(S)nc3ccccc32)cc1F` yielded a melting point of 200 °C.
For `c1ccc(CN2CCN(CC3CCc4ccccc4O3)CC2)cc1` (stereo not given), the melting point was > 230 °C.
`CCCCc1nn(-c2cc(N)ccc2Cl)c(=O)n1Cc1ccc(-c2ccccc2S(=O)(=O)NC(=O)c2ccccc2Cl)cc1` showed a melting point of 155 to 157 °C.
In the case of `CC(O)CSc1sc(-c2cc[nH]n2)c2c1C(=O)CC(C)(C)C2` (stereo not given), the melting point was 175 to 178 °C.
Work on `CC(=O)NC[C@H]1CN(c2ccc(C3=CCCN(C(=O)CO)C3)c(F)c2)C(=O)O1` yielded a melting point of 188 to 190 °C.
With `COc1ccc(C#Cc2cc(Cl)cc3c2OC(CC(F)(F)F)C(C(=O)O)=C3)cc1` (stereo not given) the melting point was 218 to 219 °C.
Compound `CC(C)OCCNC(=O)c1cccc(-c2cccc3cc(Cc4cc(F)cc(Cl)c4)sc23)c1` has a melting point of 84 to 85 °C.
With `CSc1ncnc2c(N(C)C3CCCCC3)nc(Cl)nc12` the melting point was 135 to 137 °C.
`COc1ccc(Nc2nc(Cl)nc(OCC3CCCCC3)n2)cc1Cl` gave a melting point of 114 °C.
With `Oc1cc2c(cc1Cl)OCO2` the melting point was 95 °C.
In the case of `CCOc1cc(CC)ccc1C1CCN(CCCCNC(=O)c2ccc(-c3ccc(S(C)(=O)=O)cc3)cc2)CC1`, the melting point was 179 to 180 °C.
With `CS(=O)(=O)Nc1cc2occ(NC(N)=O)c(=O)c2cc1Oc1ccccc1` the melting point was > 250 °C.
Compound `CCOC(=O)c1[nH]cc2c1NC1=C(C(=O)CCC1)C2c1ccc(Sc2nc3cc(F)c(F)cc3[nH]2)o1` (stereo not given) has a melting point of 160 to 170 °C.
`CC(C)NC1=NS(=O)(=O)c2ccc(CC#N)cc2N1` showed a melting point of 195 to 203 °C.
Compound `CN(C)c1ccc2c(c1)C(=O)CC(c1ccccc1O)=N2` has a melting point of 296 to 298 °C.
Compound `CNC(=O)c1ccccc1Nc1nc(Nc2ccc3c(c2)NC(=O)CCC3)ncc1Cl` has a melting point of 293 to 295 °C.
`O=C1CC2(CCCCC2Cc2ccccc2)S(=O)(=O)CCN1` (stereo not given) gave a melting point of 130 to 135 °C.
With `O=C(O)c1cc2cc3[nH]c(=O)[nH]c3cc2[nH]1` the melting point was > 270 °C.
Work on `CC(=O)OC1CSC(Oc2cnc(-c3ccncc3)c(F)c2)C(OC(C)=O)C1OC(C)=O` (stereo not given) yielded a melting point of 165 °C.
With `CN1CCC(c2cccc3ccc(N)cc23)CC1` the melting point was 170 to 171 °C.
With `CC(C)(C)OC(=O)c1nc(-c2ccccc2)[nH]c1C1CCCCC1` the melting point was 222 to 223 °C.
With `CNC1Cc2ccccc2C1Nc1ccc(Cc2ccccc2)cc1` (stereo not given) the melting point was 137 to 138 °C.
For `CC1(C)CC(=NO)c2cc(-c3ccc(Br)cc3)ccc2O1`, the melting point was 166 to 170 °C.
`CS(=O)(=O)Nc1ccc(CC#N)c2cn[nH]c12` showed a melting point of 223 to 225 °C.
In the case of `O=C1c2cc(F)cc(F)c2OC[C@H]1NC(=O)C(F)(F)F`, the melting point was 167 to 168 °C.
`CC(=O)N1c2cc(Cl)ccc2Sc2ccc(C(C)N(O)C(N)=O)cc21` (stereo not given) gave a melting point of 157 to 159 °C.
For `COc1cc(C=Cc2cc(=O)n3cccc(C)c3n2)cc(OC)c1OC`, the melting point was 208 to 210 °C.
`COc1ccc(-c2csc(Nc3cccc(C)n3)n2)cc1OC` gave a melting point of 264 to 266 °C.
`CCOc1cc(C(=CC#N)c2ccc(NC(C)=O)cc2)ccc1OC` showed a melting point of 175 to 177 °C.
With `COc1ccc(S(=O)(=O)C2(C(=O)NO)CCN(Cc3ccc(-c4cccs4)cc3)CC2)cc1` the melting point was 166 °C.
With `COc1ccc2cc(C#N)ccc2c1Br` the melting point was 177 to 178 °C.
`CC(Nc1ccc(F)c(F)c1)C(=O)O` (stereo not given) showed a melting point of 163 °C.
In the case of `CC(N)c1ccc2c(c1)CCCN2C(=O)OC(C)(C)C` (stereo not given), the melting point was 73 to 75 °C.
In the case of `CC1(C)C(c2ccc(S(C)(=O)=O)cc2)=C(c2ccccc2)C1O` (stereo not given), the melting point was 79 to 81 °C.
`O=C(CCS)Nc1ccc(Nc2ccccc2)cc1` gave a melting point of 98.3 to 99.5 °C.
In the case of `COc1ccc(-n2c(-c3ccccn3)nc(SC)c(C#N)c2=O)cc1`, the melting point was 246 to 253 °C.
Work on `CCc1nc2cccc(C(=O)O)c2n1Cc1ccc(-c2ccccc2-c2nnn[nH]2)cc1` yielded a melting point of 261 to 262 °C.
In the case of `CC(C)(C)C(=O)C=C(c1ccccc1)n1cncn1`, the melting point was 70 to 73 °C.
For `COCC(=O)OC[C@@H]1CC(c2ccc(-c3ccc(N4C[C@H](Cn5ccnn5)OC4=O)cc3F)cn2)=NO1`, the melting point was 170 °C.
`O=C(CCc1cc2cccnc2n(-c2cccc([N+](=O)[O-])c2)c1=O)c1ccncc1` gave a melting point of 200 to 202 °C.
Compound `C=CCOc1ccc2cc(Br)ccc2c1` has a melting point of 35 to 37 °C.
With `CCCNC(=S)NC1=Nc2ccccc2CS1` the melting point was 180 to 184 °C.
`COC1=C(OC)C(=O)c2cc(Sc3ccccc3Cl)ccc2C1=O` showed a melting point of 125 to 126 °C.
In the case of `NC(=O)CCCCC1CCCCC1`, the melting point was 121 to 122 °C.
`CC(C)(C)C(=O)COc1ccc(Cl)cn1` gave a melting point of 68 to 69.5 °C.
`O=c1[nH]c2c(CCN3CCN(c4ncccn4)CC3)cccc2o1` gave a melting point of 189 to 190 °C.
Work on `COc1c(OC(C)=O)c(C)c(CCCC(=O)O)c(OC(C)=O)c1OC` yielded a melting point of 125 to 127 °C.
Work on `COc1cc(OC)c(-c2csc(N)n2)cc1Cl` yielded a melting point of 162 °C.
With `CCN1C(=O)C(NC(=O)C(F)(F)F)CCc2c1ccc(Nc1ncc(Cl)c(N[C@@H]3CCCC[C@H]3NS(C)(=O)=O)n1)c2OC` (stereo not given in full) the melting point was 160 to 162 °C.
`COc1ccc(CNc2nc(SC)ncc2C(=O)CP(=O)(OC)OC)cc1Cl` gave a melting point of 104 to 105 °C.
For `CC(=O)N(NC(=O)c1ccccc1)[C@@H]1c2cc(C#N)ccc2OC(C)(C)[C@H]1O` (relative stereo), the melting point was 212 to 213 °C.
Compound `COc1ccc(-c2cccs2)cc1OC1CCCC1` has a melting point of 67 to 68 °C.
Compound `CC(C)(C)OC(=O)N1CCOC[C@H]1CC(=O)O` has a melting point of 82 °C.
`CCn1c(=O)c2c(nc(/C=C/c3cccc(O)c3)n2C)n(CC)c1=O` showed a melting point of 250 to 251 °C.
With `NC(=O)Nc1cc(Oc2ncccc2C(F)(F)F)c(Cl)cc1F` the melting point was > 220 °C.
Compound `N=C(Nc1ccc(Cl)c(Cl)c1)Nc1ncccc1OCc1ccccc1` has a melting point of 161 to 162 °C.
`CCOC(=O)c1cnc2sc3c(n12)CCCC3` showed a melting point of 75 to 76 °C.
Work on `COC(=O)C1=C(O)c2sc(C(F)(F)F)cc2S(=O)(=O)N1` yielded a melting point of 168 to 170 °C.
Compound `N#Cc1ccnc(C2=NC(c3ccc(F)cc3)(c3ccc(F)cc3)CN2)c1` has a melting point of 206 to 208 °C.
With `CNC(=O)N1CCc2[nH]cnc2C1c1ccco1` (stereo not given) the melting point was 205 °C.
In the case of `CN(C(=O)C1CCCCC1)c1ccccc1C(c1ccc(O)cc1)c1ccc(O)cc1`, the melting point was 250 to 252 °C.
Work on `c1cc2c(c3c1CCN3)CCS2` yielded a melting point of 170 to 172 °C.
`CC(C)CC(C(=O)O)c1ccc(-c2ccc(C(F)(F)F)cc2)c(OCC2CC2)c1` (stereo not given) showed a melting point of 142 to 143 °C.
`CCCCSc1cc(C(=O)O)cc(S(N)(=O)=O)c1Sc1ccccc1` showed a melting point of 192 to 193 °C.
With `CC1(C)CCn2c(nc(-c3ccncn3)cc2=O)N1` the melting point was 265 to 267 °C.
In the case of `O=C(Nc1ccc(C(F)(F)F)cc1)N1N=C2c3ccc(C(F)(F)F)cc3OC3CCCC1C23` (stereo not given), the melting point was 194 to 195 °C.
For `COc1cc2c(cc1Nc1ncc(Cl)c(N[C@@H]3CCCC[C@H]3NS(C)(=O)=O)n1)CCN(C(=O)C(F)(F)F)CC2`, the melting point was 98 to 107 °C.
For `Cc1cc(C)c2c(c1)OC(=O)C2c1ccc(C(C)C)cc1` (stereo not given), the melting point was 76 to 77 °C.
`O=c1[nH]c2ccccc2n1C1CCN(CC(O)CSc2ccc(F)cc2)CC1` (stereo not given) showed a melting point of 155 to 157 °C.
In the case of `CCCCC1(O)C2=NCC3(CCCCC3)CN2c2ccccc21` (stereo not given), the melting point was 192 to 195 °C.
For `COc1ccc(-c2nc(SCS(C)=O)[nH]c2-c2ccc(OC)cc2)cc1` (stereo not given), the melting point was 84.5 to 86.5 °C.
In the case of `Cc1nc(N2CCN(Cc3ccccc3)C2=O)sc1C(=O)NCc1cccc(F)c1`, the melting point was 169 to 171 °C.
`Cc1ccccc1N1CCc2c(C)nc3c(O)cccc3c21` gave a melting point of 144 to 146 °C.
Compound `COc1ccc(-c2cc(Cl)c3c(Cl)c(O)ccc3c2)cc1` has a melting point of 132 to 134 °C.
`CC12CCC(=O)C=C1CCCC2n1cc(-c2ccccc2)nn1` (stereo not given) showed a melting point of 158 to 159 °C.
Work on `O=C(Nc1ccc(N2CCNCC2)c(C(F)(F)F)c1)c1ccc(F)c(OCc2cnc3ccccc3c2)c1` yielded a melting point of 76 to 78 °C.
With `CCCCCCCCP(=O)(O)CCCCCCCC` the melting point was 84 to 86 °C.
In the case of `OCC(Cl)=C(Cl)CC(O)(Cn1cncn1)C1(Cl)CC1` (stereo not given), the melting point was 130 to 132 °C.
